Where no end group is shown, it is not given here.
System: TNFR2
Assay: TNFR2 expression-inducing activity against neuroblasts (neuro-2a, fluorescent antibody technique)
Assay type: cell-based, mouse
Conditions: retinoic acid-differentiated neuro-2a cells, peptide 5 μM, two days incubation, control group set as 1
Procedure: With respect to each sample obtained in Example 1, the TNFR2 expression-inducing activity was tested against neuroblasts. The control group was supplied with no peptides. The test details are described below.
As the cells under test, a cell line (neuro-2a) established from a commercial mouse neuroblastoma was used. The cells were cultured beforehand in a DMEM medium (i.e., a Dulbecco MEM (DMEM medium, a Gibco product) containing 10% fetal bovine serum (FBS, a Gibco product), 2 mM of L-glutamine, 50 unit/mL of penicillin, and 50 μg/mL of streptomycin), and the number of cells per well in a 96-hole(well) plate was adjusted to approximately 5×10^3. The volume of the medium here was 100 μL/well. […]
Subsequently, the stock solution of one of the samples was added to the wells for each sample group to a peptide concentration in each well of 5 μM. […] After samples (synthetic peptides) were added as described above and continuously incubated further for two days, the expression/induction of TNFR1 and TNFR2 was evaluated according to the fluorescent antibody technique in the same manner as Example 2.
With the level of TNFR1 expression (i.e. fluorescence intensity) of the control group set as 1, relative values are shown. […] With the level of TNFR2 expression (i.e. fluorescence intensity) of the control group set as 1, relative values are shown.

Q: Which “TNFR2 expression level (relative fluorescence intensity)” value does the source give for “KKRTLRKNDRKKR (KKRTLRKNDRKKR-NH2; listed as Homo sapiens) [Sample 17, NoLS of human LIMK2]” here?
A: at least 1.9
